Results from patent publication US20060063209A1, “Engineered antibody fragment that irreversibly binds an antigen” (THE REGENTS OF THE UNIVERSITY OF CALIFORNIA, priority 2004, published 2006).
Entries after “also recorded” stand apart in the source; their conditions may differ.

Key:
[1] = tested on: antibody 2D12.5; assay: Competitive immunoassay (ELISA) of metal chelate binding; parameters: species or system mouse; settings: reversible binding to parental 2D12.5
Description: FIG. 9 Relative binding of metal-(S)NBD complexes to antibody 2D12.5. A representative set of competitive binding curves obtained from ELISA experiments. Distance between midpoints is related to difference between dissociation constants. Error bars (representing the standard error of the mean) are shown but are generally smaller than the data points.
FIG. 14 Binding of yttrium chelates with different stereochemistry to antibody 2D12.5, showing that the antibody binds a chelate with the side chain in the R configuration approximately one order of magnitude less well than the S configuration. […] Error bars are smaller than the data symbols. Data were generated by competitive ELISA.
A competitive immunoassay to measure the binding constants of various metal-(S)NBD complexes relative to the original Y^3+ complex (FIG. 9) was developed to assess the metal selectivity of antibody 2D12.5. Briefly, 2D12.5 was incubated at 37° C. in the presence of immobilized HSA-21T-Y-(S)BAD and a soluble metal-(S)NBD competitor (Y-(S)BAD was linked to human serum albumin via 2-iminothiolane). The metal-(S)NBD concentration was varied from μM to pM in order to determine the relative binding affinity of 2D12.5 for each metal chelate in comparison to Y-(S)NBD. […] Other antibodies that bind metal chelates do so with a strong preference for one or possibly two metals (Love, R. et al., Biochemistry 32, 10950-10959 (1993), and Khosraviani, M., et al., (2000) Bioconjugate Chem., 11, 267-277). For example, the (S)NBD chelate of group IIIB ion Sc(III) binds to the antibody with a much lower affinity (<1%) than the strongest binding rare earth complexes, perhaps because Sc(III) has a much smaller ionic radius (Meehan, P. R., et al., Coord. Chem. Rev., 181, 121145, and Shannon, R. D. (1976) Acta Crystallogr., Sect. A: Found. Crystallogr., A32, 751-767).

[2] = tested on: G54C mutant of 2D12.5; assay: Permanent binding to G54C, competitive 90Y-AABD attachment, SDS-PAGE; settings: 37° C.
Procedure: FIG. 17 a) Scheme describing the permanent binding pair. b) Infinite binding is observed not only for ^90Y-AABD but also for ^111In-AABD, assayed by SDS-PAGE under denaturing conditions where only permanently bound complexes remain attached to the antibody.
FIG. 18 The G54C mutant was preincubated in triplicate with 10 μM AABD complexes of Y^3+, In^3+ or Cu^2+, a negative control N-(1-carbamoyl-2-(4-nitrophenyl)-ethyl)-acrylamide or N-(4-carboxymethylphenyl)-acrylamide, or just buffer, for 5 min, 20 min or 120 min at 37° C., pH 7.5. At the stated times ^90Y-AABD (1 μM) was added to each solution to compete for free G54C. Permanent binding was assayed by measuring band intensities after SDS-PAGE. a) Phosphorimage of gel. The fainter the bands, the greater the permanent binding by the unlabeled ligand. b) Crystal structures of Y-DOTA, In-DOTA-mono(p aminoanilide) (some atoms removed for clarity) and Cu-DOTA.
FIG. 19 a) Metal-AABD (10 μM) complexes were preincubated separately with aliquots of G54C for 5 min, followed by addition of 1 μM ^90Y-AABD, which competes for free G54C, and SDS-PAGE analysis. b) From quantitative phosphorimaging, the highest-affinity AABD complexes form permanent bonds with G54C with higher yields than more 3+weakly binding rare earth-AABD complexes whose ionic radii are slightly smaller (Lu Yb^3+) or larger (Ce^3+, La^3+) than ideal.
We were curious to see if an even weaker binder such as a copper chelate (KD˜10^−4 M for Cu-NBD) would bind irreversibly under ordinary conditions. We tested this by comparing the permanent binding of Y^3+-, In^3+-, and Cu^2+-AABD, using competitive ^90Y-AABD attachment as an indicator (FIG. 18). […] Weaker binding In-AABD blocks >50% of the sites after 5 min preincubation, and even more at later times. Very weakly binding Cu-AABD initially occupies only about 10% of the G54C sites under these conditions, but it has permanently attached to G54C in good yield after 2 hr, blocking>70% of the sites.

[3] = tested on: G54C Fab; assay: Kinetics of permanent bond formation with G54C Fab; format: binding
Procedure: FIG. 21 Kinetics of permanent bond formation between G54C Fab (1 μM) and 10 μM ^90Y-labeled YAABD. The addition of a high concentration of Y-NBD, a reversibly binding competitor, after 6 min competitively blocks the re-binding of any Y-AABD that dissociates without forming a permanent bond. The experiment containing no competitor, on the other hand, allows any Y-AABD molecules initially bound in an unproductive mode to rebind in an orientation favorable for permanent covalent bond formation until a maximum is reached.
The question to be addressed was the probability that Y-AABD reacts with G54C the first time it forms a complex, instead of dissociating and rebinding. In the first experiment ^90Y-labeled Y-AABD (10 μM) was added to G54C Fab (1 μM) at 37° C., pH 7.5. Samples were withdrawn at various times and were immediately added to SAB, boiled and reduced under denaturing conditions to halt any further permanent bond formation. Samples were analyzed by SDS-PAGE, and the extent of permanent bond formation was determined by measuring the relative radioactivity of bands.
In a second experiment, performed in parallel, conditions were identical to the first except that the reversible competitor Y-NBD was added in vast excess (1 mM) relative to Y-AABD after 6 min, allowing labeled Y-AABD complexes to form bonds or dissociate, but competitively blocking any re-binding of Y-AABD to G54C.

[4] = Whole-body clearance of indium-111 labeled electrophilic benzyl-EDTA derivatives; format: in vivo; settings: indium-111 labeled chelate, BALB/c mice; for apparent half-life, whole-body clearance: after tail-vein injection
Procedure: FIG. 4 Whole-body clearance of indium-^111I labeled electrophilic derivatives of benzyl-EDTA from BALB/c mice after tail-vein injection. Here the objective was to find an electrophilic chelate that clears from the animal quickly when not captured by an engineered CHA255.
As reactive ligands, a small set of chelates bearing electrophilic para substituents (FIG. 3) that could react with cysteine were prepared. To be most useful, the electrophilic ligands should be stable in biological media so that they not react prematurely with common biological nucleophiles such as the cysteine on glutathione or in albumin (Geigy Scientific Tables Vol 3, C. Lentner, ed., Ciba-Geigy Ltd., Basel, Switz (1984)). The whole-body clearance of the radiolabeled chelates from mice was studied (FIG. 4 and Chmura, A. J., et al., J. Controlled Release 78:249-258 (2002)) to identify the electrophilic chelates that are unreactive in plasma in vitro, and which also quantitatively clear from live animals.

[5] = tested on: Fab S95C; assay: Covalent attachment of 111In-chelates to engineered Fab S95C (SDS-PAGE); format: binding; settings: physiological pH and temperature, raw culture medium with 10% fetal calf serum
Procedure: FIG. 5 Conjugation of electrophilic ^111In-benzyl-EDTA derivatives with engineered Fab S95C. Phosphorimage of 10-20% SDS-PAGE gel of samples of complete culture media incubated with ^111In-labeled (A) CABE, (B) CpABE, (C) AABE, and (D) ABE. The radiolabeled light chains migrate near 25 Kd.
To investigate whether either the S95C or the N96C Fab would bind irreversibly to its target, ^111In-labeled chelates bearing electrophilic groups were incubated at physiological pH and temperature with raw tissue culture medium from the cells expressing these recombinant proteins. The culture medium contained 10% fetal calf serum, representative of typical biological media.
The samples were analyzed by denaturing gel electrophoresis (SDS-PAGE). Separation under reducing and denaturing conditions on SDS-PAGE separates the light chain from the heavy chain of each Fab, functionally destroying the antibody-binding pocket. Chelates bound to the Fab but not covalently linked will dissociate because the antibody-binding pocket is no longer folded. […] However, a chelate that not only bound to a Fab but also covalently linked will be attached to the Fab light chain and migrate with it on SDS-PAGE.

[6] = tested on: S95C Fab; assay: Competition assay: blocking covalent attachment of 111In-AABE; format: binding; settings: excess nonradioactive ABE-metal chelate
Description: (a) Competition ELISA curves. Different metal-ABE chelates compete with an immobilized indium chelate for binding Fab S95C. (b) Competitive binding of a series of metal-ABE chelates, measured by blocking the covalent attachment of ^111In-AABE to Fab S95C. SDSPAGE gel bands show increased labeling of the light chain with decreasing competition.
To further confirm that S95C Fab retained the ligand-binding specificity, we performed a competition assay to see whether nonradioactive ABE-indium, -iron, -cadmium, -scandium, or -gallium could block the covalent attachment of ^111In-AABE.

[7] = tested on: Fab S95C; assay: Kinetics of covalent bond formation with Fab S95C; format: binding; settings: 22° C., pH 7.4
Procedure: FIG. 7 (a) Phosphorimage of a representative SDS-PAGE assay of the extent of permanent attachment of ^111In-AABE to the light chain of Fab S95C. (b)Kinetics of formation of the covalent bond between bound ^111In-AABE and Fab S95C, at 22° C., pH 7.4.
We explored the rate of covalent attachment of the AABE-^111In chelate to the S95C mutant, by monitoring the extent of reaction as a function of time. The covalent attachment was 50% complete in approximately 10 min at 22° C. (FIG. 7).

Row | Structure (SMILES) | Kd [1] | G54C sites blocked from 90Y-AABD ([2]; 10 μM complex, preincubation 5 min, pH 7.5) | permanent binding to G54C ([2]; pH 7.5, SDS-PAGE, listed as 90Y-AABD) | fraction of molecules reacting upon initial complex formation [3] | apparent half-life, whole-body clearance [4] | covalent attachment to Fab S95C light chain [5] | blocking of covalent attachment of 111In-AABE [6] | whole-body clearance [4] | covalent attachment to Fab S95C light chain ([5]; listed as 111In-AABE) | covalent attachment to Fab S95C light chain ([5]; listed as AABE-^111In) | time to 50% complete covalent attachment [7]
1 | C=CC(=O)Nc1ccc(C[C@H]2CN(CC(=O)O)CCN(CC(=O)O)CCN(CC(=O)O)CCN2CC(=O)O)cc1 [Y-AABD, (S)-2-(4-acrylamidobenzyl)-DOTA] | 4 nM | > 90% | permanently and specifically attaches | about half | – | – | – | – | – | – | –
2 | Nc1ccc(C[C@@H](CN(CC(=O)O)CC(=O)O)N(CC(=O)O)CC(=O)O)cc1 [ABE, (S)-1-[p-(amino)benzyl]-EDTA, reference compound] | – | – | – | – | about 4 h | not | effectively blocks the reaction | – | – | – | –
3 | C=CC(=O)Nc1ccc(C[C@@H](CN(CC(=O)O)CC(=O)O)N(CC(=O)O)CC(=O)O)cc1 [AABE, (S)-1-[p-(acrylamido)benzyl]-EDTA] | – | – | – | – | about 4 h | – | – | showed the required clearance properties; also recorded: clears as completely—and almost as rapidly—as ABE | reacted equally well | reacted with the S95C mutant of CHA255 to permanently tag the light chain | approximately 10 min
